# Entries after “also recorded” stand apart in the source; their conditions may differ.
# Tests used:
# [1] = target: T1, human VMAT1 transporter (Homo sapiens, UniProt P54219); experiment: Uptake in cells expressing VMAT1; assay type: cell-based; settings: concentrations up to 10 μM
# T1 construct: expressed in transfected cells
# T1 sequence (P54219 1-525): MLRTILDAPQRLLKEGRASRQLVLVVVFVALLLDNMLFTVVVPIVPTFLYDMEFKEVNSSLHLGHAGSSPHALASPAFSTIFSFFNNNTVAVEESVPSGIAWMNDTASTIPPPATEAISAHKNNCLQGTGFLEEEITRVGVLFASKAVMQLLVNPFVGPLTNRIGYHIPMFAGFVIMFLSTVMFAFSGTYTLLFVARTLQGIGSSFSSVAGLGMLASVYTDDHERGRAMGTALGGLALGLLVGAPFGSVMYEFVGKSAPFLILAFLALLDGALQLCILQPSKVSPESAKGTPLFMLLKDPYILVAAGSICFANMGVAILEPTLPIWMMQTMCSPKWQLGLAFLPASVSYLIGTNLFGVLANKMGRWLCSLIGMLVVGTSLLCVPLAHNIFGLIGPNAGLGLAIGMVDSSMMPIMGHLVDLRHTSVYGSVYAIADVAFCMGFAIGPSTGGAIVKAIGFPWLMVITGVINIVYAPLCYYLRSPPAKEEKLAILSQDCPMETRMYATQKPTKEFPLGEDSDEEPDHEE
# Method: None of the TBZ or VBZ metabolites had any affinity for the monoamine transporters DAT, SERT or NET. To complete the selectivity profile for VMAT2, the functional activity for the human VMAT1 transporter of these compounds was tested in cells expressing VMAT1.
# [2] = both, human, in vivo
# Source text: (§1) Overall, 24 male and female subjects were enrolled, including 6 subjects with normal hepatic function (Group I), 6 with mild stable hepatic impairment (Group II), 6 with moderate stable hepatic impairment (Group III), and 6 with severe stable hepatic impairment (Group IV). […] All subjects were genotyped to determine their cytochrome P450 2D6 (CYP2D6) status.
# (§2) The Child-Pugh scale was used to categorize the degree of hepatic impairment for assignment into the mild (score of 5-6), moderate (score of 7-9), and severe hepatic impairment (score of 10-15) groups.
# (§3) After providing informed consent, subjects were screened for eligibility within 28 days of study drug dosing on Day 1. Eligible subjects were admitted to the center in the morning (Day −1), before the dosing day and remained confined in the center for 4 days. Subjects were discharged on Day 4, after the collection of the 72-hour PK sample and safety assessments. On the morning of Days 5 and 6, subjects returned to the center for a PK sample collection and safety assessments; a final study visit was conducted on Day 8 (7 days postdose).
# (§4) Safety assessments were conducted at scheduled times throughout the study.
# [3] = clinical; settings: both, human, in vivo
# Source text: as §1, §2, §3, §4
# [4] = tested on: more than 80 targets including GPCRs, cell-surface monoamine transporters, and ion channels including HERG; experiment: Multi-target activity screen (Cerep screen); settings: receptors
# [5] = Phase 1 single-dose safety and tolerability (adverse events, laboratory tests, vital signs, ECG); assay type: in vivo, human; settings: NBI-98854 50 mg single dose; for Abdominal discomfort / Adverse events: Overall / Back pain / Constipation / Dyspepsia / Epistaxis / Gastrointestinal Disorders / General Disorders and Administrative Site Conditions / Haemorrhoids / Headache / Infections and Infestations / Musculoskeletal and Connective Tissue Disorders / Nausea / Nervous System Disorders / Rash / Respiratory, Thoracic, and Mediastinal Disorders / Rhinitis / Skin and Subcutaneous Tissue Disorders / Vessel puncture site haematoma: subjects n (%)
# [6] = target: T2, VMAT2 (Rattus norvegicus, UniProt Q01827); experiment: Inhibition of [3H]-DHTBZ binding to rat striatal membranes; settings: Rat Striatum
# T2 construct: from tissue; host or cells: rat forebrain membranes
# T2 sequence (Q01827 whole entry): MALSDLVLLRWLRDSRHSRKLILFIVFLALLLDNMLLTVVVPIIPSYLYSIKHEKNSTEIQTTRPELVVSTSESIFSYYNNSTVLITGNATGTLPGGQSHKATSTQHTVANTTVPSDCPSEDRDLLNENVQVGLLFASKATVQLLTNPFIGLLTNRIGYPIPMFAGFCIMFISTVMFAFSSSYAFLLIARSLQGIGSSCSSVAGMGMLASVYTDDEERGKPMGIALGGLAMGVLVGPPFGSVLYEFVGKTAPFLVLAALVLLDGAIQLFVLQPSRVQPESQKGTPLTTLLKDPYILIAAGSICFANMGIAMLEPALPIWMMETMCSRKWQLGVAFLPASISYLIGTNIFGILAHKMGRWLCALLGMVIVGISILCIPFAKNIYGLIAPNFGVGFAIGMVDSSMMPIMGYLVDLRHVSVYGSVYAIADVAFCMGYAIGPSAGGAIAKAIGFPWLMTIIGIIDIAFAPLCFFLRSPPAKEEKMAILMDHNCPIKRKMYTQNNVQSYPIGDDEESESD
# [7] = target: T3, VMAT2 (Homo sapiens, UniProt Q05940); experiment: Inhibition of [3H]-DHTBZ binding to human platelets
# T3 construct: from tissue; host or cells: human platelets (homogenates)
# T3 sequence (Q05940 whole entry): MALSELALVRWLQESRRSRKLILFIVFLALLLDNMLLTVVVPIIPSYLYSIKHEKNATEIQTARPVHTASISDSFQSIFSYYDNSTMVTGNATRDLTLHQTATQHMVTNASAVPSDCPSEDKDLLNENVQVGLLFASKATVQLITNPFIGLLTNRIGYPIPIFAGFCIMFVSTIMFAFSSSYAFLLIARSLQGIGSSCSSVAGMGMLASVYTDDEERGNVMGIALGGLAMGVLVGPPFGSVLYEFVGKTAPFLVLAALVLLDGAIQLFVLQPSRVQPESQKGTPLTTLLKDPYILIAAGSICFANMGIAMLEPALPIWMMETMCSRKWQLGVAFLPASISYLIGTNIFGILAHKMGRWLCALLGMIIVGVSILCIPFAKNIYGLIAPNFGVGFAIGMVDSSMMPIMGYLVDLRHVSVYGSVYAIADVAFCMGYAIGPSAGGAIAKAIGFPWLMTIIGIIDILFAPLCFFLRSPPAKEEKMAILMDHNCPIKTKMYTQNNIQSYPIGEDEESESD
# [8] = tested on: ptosis; experiment: Ptosis, in vivo surrogate measure
# [9] = tested on: serum prolactin; experiment: Prolactin release, in vivo surrogate measure
# [10] = tested on: dopamine, serotonin and adrenergic receptor subtypes; experiment: Detailed radioligand binding assays, monoamine receptor subtypes
# [11] = target: Dopamine D1 (Homo sapiens, UniProt P21728); experiment: Cerep screen, ligand binding; settings: radioligand binding assays and broad panel screen
# Dopamine D1, sequence (P21728 whole entry): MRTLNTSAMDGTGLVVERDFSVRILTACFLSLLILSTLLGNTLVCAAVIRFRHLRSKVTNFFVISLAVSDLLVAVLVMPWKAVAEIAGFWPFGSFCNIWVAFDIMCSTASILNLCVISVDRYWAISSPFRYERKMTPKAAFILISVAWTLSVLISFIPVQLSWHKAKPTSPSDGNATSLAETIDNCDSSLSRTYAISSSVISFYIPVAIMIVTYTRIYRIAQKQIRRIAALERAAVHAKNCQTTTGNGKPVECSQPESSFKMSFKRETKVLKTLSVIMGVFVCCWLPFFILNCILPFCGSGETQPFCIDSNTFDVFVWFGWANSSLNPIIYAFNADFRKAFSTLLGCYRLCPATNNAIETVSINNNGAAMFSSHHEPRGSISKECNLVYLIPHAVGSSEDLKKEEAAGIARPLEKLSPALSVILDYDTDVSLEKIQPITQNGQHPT
# [12] = target: Dopamine D2(s) (Homo sapiens, UniProt P14416); experiment: Cerep screen, ligand binding; settings: radioligand binding assays and broad panel screen
# Dopamine D2(s), sequence (P14416 1-414 isoform P14416-2): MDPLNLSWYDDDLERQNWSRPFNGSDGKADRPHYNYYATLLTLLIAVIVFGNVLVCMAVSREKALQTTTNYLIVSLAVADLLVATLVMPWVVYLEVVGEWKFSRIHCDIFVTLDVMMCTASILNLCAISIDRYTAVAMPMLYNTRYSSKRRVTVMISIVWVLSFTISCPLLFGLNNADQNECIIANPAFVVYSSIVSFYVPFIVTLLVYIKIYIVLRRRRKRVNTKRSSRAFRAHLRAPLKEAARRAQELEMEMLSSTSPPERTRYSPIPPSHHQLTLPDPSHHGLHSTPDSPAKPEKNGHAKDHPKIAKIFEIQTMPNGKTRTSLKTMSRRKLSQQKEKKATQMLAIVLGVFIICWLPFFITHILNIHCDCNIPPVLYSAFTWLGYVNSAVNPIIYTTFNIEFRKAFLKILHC
compound,measurement,setting,value
"COC(=O)[C@H]1[C@H]2C[C@@H]3c4[nH]c5cc(OC)ccc5c4CCN3C[C@H]2C[C@@H](OC(=O)c2cc(OC)c(OC)c(OC)c2)[C@@H]1OC [reserpine, reference compound]",inhibition of uptake through VMAT1,[1],substantially inhibited uptake through VMAT1
COc1cc2c(cc1OC)[C@H]1C[C@@H](OC(=O)[C@@H](N)C(C)(C)O)[C@H](CC(C)C)CN1CC2 [NBI-136110],increase in AUC0-∞,[2],< 2 fold
same,increase in Cmax,[2],< 2 fold
same,increase in t1/2 with hepatic impairment,[2],< 2 fold
same,increase in tmax with hepatic impairment,[2],< 2 fold
same,mean Tlag,[2],0.33 to 0.54 h
same,mean molar ratio of plasma AUC0-∞ for NBI-136110 versus NBI-98854,[2],28.3-37.3%
same,MRT,[3],51 to 81 h
same,half-life,[3]; mean t1/2,33 to 36 h
same,Tmax,[3]; median tmax,2.5 to 4 h
same,AUC(0-t),"[3]; po, 50 mg, AUC0-24",363 ng·h/mL
same,AUC(0-t),"[3]; po, 50 mg, AUC0-TLAST",928 ng·h/mL
same,AUC(0-inf),"[3]; po, 50 mg, AUC0-∞",1030 ng·h/mL
same,Cmax,"[3]; po, 50 mg, CMAX",32.5 ng/mL
same,MRT,"[3]; po, 50 mg",53 h
same,Tmax,"[3]; po, 50 mg, TMAX",4 h
same,half-life,"[3]; po, 50 mg, t1/2",57 h
same,affinity for more than 80 binding sites,[4],little to no affinity
"COc1cc2c(cc1OC)[C@H]1C[C@@H](OC(=O)[C@@H](N)C(C)C)[C@H](CC(C)C)CN1CC2 [NBI-98854, (S)-2-amino-3-methyl-butyric acid (2R,3R,11bR)-3-isobutyl-9,10-dimethoxy-1,3,4,6,7,11b-hexahydro-2H-pyrido[2,1-a]isoquinolin-2-yl ester]",Abdominal discomfort,[5]; Mild (N = 6),0
same,Adverse events: Overall,[5]; Mild (N = 6),2 (33.3%)
same,Back pain,[5]; Mild (N = 6),0
same,Constipation,[5]; Mild (N = 6),0
same,Dyspepsia,[5]; Mild (N = 6),0
same,Epistaxis,[5]; Mild (N = 6),0
same,Gastrointestinal Disorders,[5]; Mild (N = 6),1 (16.7%)
same,General Disorders and Administrative Site Conditions,[5]; Mild (N = 6),0
same,Haemorrhoids,[5]; Mild (N = 6),1 (16.7%)
same,Headache,[5]; Mild (N = 6),1 (16.7%)
same,Infections and Infestations,[5]; Mild (N = 6),1 (16.7%)
same,Musculoskeletal and Connective Tissue Disorders,[5]; Mild (N = 6),0
same,Nausea,[5]; Mild (N = 6),0
same,Nervous System Disorders,[5]; Mild (N = 6),1 (16.7%)
same,Rash,[5]; Mild (N = 6),0
same,"Respiratory, Thoracic, and Mediastinal Disorders",[5]; Mild (N = 6),0
same,Rhinitis,[5]; Mild (N = 6),1 (16.7%)
same,Skin and Subcutaneous Tissue Disorders,[5]; Mild (N = 6),0
same,Vessel puncture site haematoma,[5]; Mild (N = 6),0
same,Abdominal discomfort,[5]; Moderate (N = 6),0
same,Adverse events: Overall,[5]; Moderate (N = 6),2 (33.3%)
same,Back pain,[5]; Moderate (N = 6),1 (16.7%)
same,Constipation,[5]; Moderate (N = 6),1 (16.7%)
same,Dyspepsia,[5]; Moderate (N = 6),0
same,Epistaxis,[5]; Moderate (N = 6),0
same,Gastrointestinal Disorders,[5]; Moderate (N = 6),1 (16.7%)
same,General Disorders and Administrative Site Conditions,[5]; Moderate (N = 6),0
same,Haemorrhoids,[5]; Moderate (N = 6),0
same,Headache,[5]; Moderate (N = 6),0
same,Infections and Infestations,[5]; Moderate (N = 6),0
same,Musculoskeletal and Connective Tissue Disorders,[5]; Moderate (N = 6),1 (16.7%)
same,Nausea,[5]; Moderate (N = 6),0
same,Nervous System Disorders,[5]; Moderate (N = 6),0
same,Rash,[5]; Moderate (N = 6),1 (16.7%)
same,"Respiratory, Thoracic, and Mediastinal Disorders",[5]; Moderate (N = 6),0
same,Rhinitis,[5]; Moderate (N = 6),0
same,Skin and Subcutaneous Tissue Disorders,[5]; Moderate (N = 6),1 (16.7%)
same,Vessel puncture site haematoma,[5]; Moderate (N = 6),0
same,Abdominal discomfort,[5]; Normal (N = 6),1 (16.7%)
same,Adverse events: Overall,[5]; Normal (N = 6),2 (33.3%)
same,Back pain,[5]; Normal (N = 6),0
same,Constipation,[5]; Normal (N = 6),0
same,Dyspepsia,[5]; Normal (N = 6),0
same,Epistaxis,[5]; Normal (N = 6),0
same,Gastrointestinal Disorders,[5]; Normal (N = 6),1 (16.7%)
same,General Disorders and Administrative Site Conditions,[5]; Normal (N = 6),1 (16.7%)
same,Haemorrhoids,[5]; Normal (N = 6),0
same,Headache,[5]; Normal (N = 6),0
same,Infections and Infestations,[5]; Normal (N = 6),0
same,Musculoskeletal and Connective Tissue Disorders,[5]; Normal (N = 6),0
same,Nausea,[5]; Normal (N = 6),0
same,Nervous System Disorders,[5]; Normal (N = 6),0
same,Rash,[5]; Normal (N = 6),0
same,"Respiratory, Thoracic, and Mediastinal Disorders",[5]; Normal (N = 6),0
same,Rhinitis,[5]; Normal (N = 6),0
same,Skin and Subcutaneous Tissue Disorders,[5]; Normal (N = 6),0
same,Vessel puncture site haematoma,[5]; Normal (N = 6),1 (16.7%)
same,Abdominal discomfort,[5]; Severe (N = 6),0
same,Adverse events: Overall,[5]; Severe (N = 6),2 (33.3%)
same,Back pain,[5]; Severe (N = 6),0
same,Constipation,[5]; Severe (N = 6),0
same,Dyspepsia,[5]; Severe (N = 6),1 (16.7%)
same,Epistaxis,[5]; Severe (N = 6),1 (16.7%)
same,Gastrointestinal Disorders,[5]; Severe (N = 6),1 (16.7%)
same,General Disorders and Administrative Site Conditions,[5]; Severe (N = 6),0
same,Haemorrhoids,[5]; Severe (N = 6),0
same,Headache,[5]; Severe (N = 6),0
same,Infections and Infestations,[5]; Severe (N = 6),0
same,Musculoskeletal and Connective Tissue Disorders,[5]; Severe (N = 6),0
same,Nausea,[5]; Severe (N = 6),1 (16.7%)
same,Nervous System Disorders,[5]; Severe (N = 6),0
same,Rash,[5]; Severe (N = 6),0
same,"Respiratory, Thoracic, and Mediastinal Disorders",[5]; Severe (N = 6),1 (16.7%)
same,Rhinitis,[5]; Severe (N = 6),0
same,Skin and Subcutaneous Tissue Disorders,[5]; Severe (N = 6),0
same,Vessel puncture site haematoma,[5]; Severe (N = 6),0
same,intensity of TEAEs judged by the investigator,[5]; all TEAEs,mild in intensity
same,"changes in clinical laboratory tests, vital signs measurements, or ECG parameters",[5]; all groups,no clinically significant changes
same,"deaths, serious or severe TEAEs",[5]; all groups,"No deaths, serious or severe treatment-emergent adverse events (TEAEs) were reported; also recorded: No deaths, serious TEAEs, or discontinuations due to an AE were reported"
same,discontinuation due to a TEAE,[5]; all groups,no subject discontinued the study due to a TEAE
same,tolerability,[5]; normal subjects and subjects with hepatic impairment,well-tolerated
same,Treatment-related AEs (possibly or definitely related to study drug),[5]; of 24 subjects,4 subjects
same,"Affinity Relative to R,R,R-DHTBZ",[6],39
same,"Affinity Relative to R,R,R-DHTBZ",[7],45
same,inhibition of uptake through VMAT1,[1]; listed as VBZ,no significant inhibitory activity; also recorded: no significant effect on the uptake of monoamines through VMAT1
same,induction of ptosis,[8],induced ptosis in an equivalent manner
same,increase in serum prolactin levels,[9],to a lesser extent
same,increase in Cmax,[2],2-3 fold
same,increase in t1/2 with hepatic impairment,[2],< 2 fold
same,increase in tmax with hepatic impairment,[2],< 2 fold
same,mean Tlag,[2],0.17 to 0.38 h
same,MRT,[3],23 to 30 h
same,half-life,[3]; mean t1/2,21 to 22 h
same,MRT,"[3]; po, 50 mg",24 h
same,Tmax,"[3]; po, 50 mg, TMAX",1.1 h
same,Vd/F,"[3]; po, 50 mg, Vz/F",600 L
same,half-life,"[3]; po, 50 mg, t1/2",28 h
same,affinity for more than 80 binding sites,[4],little to no affinity
"COc1cc2c(cc1OC)[C@H]1C[C@@H](O)[C@H](CC(C)C)CN1CC2 [NBI-98782, (2R,3R,11bR)-3-isobutyl-9,10-dimethoxy-1,3,4,6,7,11b-hexahydro-2H-pyrido[2,1-a]isoquinolin-2-ol]",inhibition of uptake through VMAT1,"[1]; listed as R,R,R-DHTBZ",no significant inhibitory activity; also recorded: no significant effect on the uptake of monoamines through VMAT1
same,specificity for the VMAT2 transporter versus monoamine receptor subtypes,[10],high specificity
same,induction of ptosis,[8],induced ptosis in an equivalent manner
same,increase in serum prolactin levels,[9],induced a similar increase in serum prolactin levels as TBZ
same,increase in AUC0-∞,[2],approximately 3.5 fold
same,increase in t1/2 with hepatic impairment,[2],< 2 fold
same,increase in tmax with hepatic impairment,[2],< 2 fold
same,mean Tlag,[2],0.42 to 0.67 h
same,MRT,[3],36 to 53 h
same,MRT,"[3]; po, 50 mg",36 h
same,affinity for more than 80 binding sites,[4],little to no affinity
"COc1cc2c(cc1OC)[C@@H]1C[C@@H](O)[C@@H](CC(C)C)CN1CC2 [R,S,S-DHTBZ]",interaction with D1 receptors,[11],interact with D1 and D2 receptors
same,interaction with D2 receptors,[12],interact with D1 and D2 receptors
"COc1cc2c(cc1OC)[C@@H]1C[C@H](O)[C@@H](CC(C)C)CN1CC2 [S,S,S-DHTBZ]",interaction with D1 receptors,[11],interact with D1 and D2 receptors
same,interaction with D2 receptors,[12],interact with D1 and D2 receptors
"COc1cc2c(cc1OC)C1CC(=O)C(CC(C)C)CN1CC2 (centres unmarked) [TBZ, reference compound]",inhibition of uptake through VMAT1,[1],no significant inhibitory activity; also recorded: no significant effect on the uptake of monoamines through VMAT1
same,induction of ptosis,[8],induced ptosis in an equivalent manner
same,increase in serum prolactin levels,[9],increase in serum prolactin levels
